How the values were obtained:
[1] = target: T1, PKK in kaolin activated human platelet poor plasma (Homo sapiens, UniProt P03952); assay: Inhibition of PKK in kaolin activated human PPP; assay type: biochemical; settings: 25-750 μg/mL kaolin, global fit, text b200 calls the values IC90;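 note: readout is the rate of fluorogenic substrate cleavage in rfu per min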
T1 construct: Platelet poor plasma (PPP) obtained from human wholeblood; from tissue
Description: Platelet poor plasma (PPP) obtained from human wholeblood, anticoagulated with Na-Citrate, is incubated with various concentrations of the test compound together with either 25, 75, 250, or 750 μg/mL kaolin in assay buffer for 20 min at 37° C. such that for each kaolin dose used a concentration response is obtained for the test compound.

[2] = target: T2, Human PKK (Homo sapiens, UniProt P03952); assay: Inhibition of PKK using an endpoint assay (human PKK); assay type: biochemical; settings: fluorogenic substrate H-Pro-Phe-Arg-AMC, 1 h room temperature, method names human or rat PKK, table does not say which
T2 construct: purchased Enzyme Research Laboratories
Description: The ability of compounds of formula (I) to inhibit plasma kallikrein (PKK), Factor XIIa (FXIIa), Factor XIa (FXIa), Factor Xa (FXa), Factor IIa (alpha-thrombin; FIIa), plasmin, trypsin, tissue kallikrein 1 (TK1), Factor VIIa (FVIIa), or FVIIa complexed with Tissue Factor, phospholipids and CaCl2 (FVIIa/TF/PL/CaCl2) is determined using the following biochemical assays in assay buffer (100 mM Tris, 150 mM NaCL, adjusted to a pH of 7.8 with HCl, and containing 0.1% (w/v) BSA and 0.05% (v/v) Tween20) in the presence of 1% (v/v) DMSO:
Subsequently, PPACK II (Calbiochem) is added as a stop solution to achieve a final concentration of 1 μM and fluorescence is measured using an Envision Reader (PerkinElmer) with the wavelength excitation setting of 355 nm and the wavelength emission setting of 460 nm.

T1 sequence (P03952 391-638 limits assumed): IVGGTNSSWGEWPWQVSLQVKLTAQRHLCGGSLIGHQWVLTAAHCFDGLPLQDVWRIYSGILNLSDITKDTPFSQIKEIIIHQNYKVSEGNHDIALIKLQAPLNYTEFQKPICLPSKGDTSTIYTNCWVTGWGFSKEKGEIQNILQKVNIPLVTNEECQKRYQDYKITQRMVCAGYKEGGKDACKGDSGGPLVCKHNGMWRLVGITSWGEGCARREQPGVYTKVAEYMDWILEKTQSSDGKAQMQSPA
T1 sequence (P03952 20-390 limits assumed): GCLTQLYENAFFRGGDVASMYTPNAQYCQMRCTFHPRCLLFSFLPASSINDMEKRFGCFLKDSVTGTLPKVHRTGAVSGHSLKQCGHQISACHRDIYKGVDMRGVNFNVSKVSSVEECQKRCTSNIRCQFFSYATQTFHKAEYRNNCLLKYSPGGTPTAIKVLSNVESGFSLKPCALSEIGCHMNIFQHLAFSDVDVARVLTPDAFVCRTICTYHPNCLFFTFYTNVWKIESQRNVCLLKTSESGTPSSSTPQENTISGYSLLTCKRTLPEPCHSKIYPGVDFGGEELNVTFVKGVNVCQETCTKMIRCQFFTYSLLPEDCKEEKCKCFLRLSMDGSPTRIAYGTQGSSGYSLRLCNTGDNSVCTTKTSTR
T2 sequence (P03952 20-390 limits assumed): as above
T2 sequence (P03952 391-638 limits assumed): as the sequence (P03952 391-638 limits assumed) above

SMILES | IC50 [1] [nM] | IC50 [2] [nM]
COCc1nc(N2CC3C(C2)C3(F)F)ccc1Cn1cc(C(=O)N[C@@H]2CCc3c2ncn3C)cn1 (stereo partly drawn) [Example 2, 1-[(6-{6,6-Difluoro-3-azabicyclo[3.1.0]hexan-3-yl}-2-(methoxymethyl)pyridin-3-yl)methyl]-N-[(4R)-1-methyl-1H,4H,5H,6H-cyclopenta[d]-imidazol-4-yl]-1H-pyrazole-4-carboxamide] | 253 | 3.1
Cn1cnc2c1CC[C@H]2NC(=O)c1cn(Cc2ccc(N3CC4CC4C3)cn2)nn1 (stereo partly drawn) [Example 8, 1-[(5-{3-Azabicyclo[3.1.0]hexan-3-yl}pyridin-2-yl)methyl]-N-[(4R)-1-methyl-1H,4H,5H,6H-cyclopenta[d]imidazol-4-yl]-1H-1,2,3-triazole-4-carboxamide] | 352 | 2.3
Cn1cnc2c1CC[C@H]2NC(=O)c1cnn(Cc2ccc(N3CC4CC4C3)cn2)c1 (stereo partly drawn) [Example 9, 1-[(5-{3-Azabicyclo[3.1.0]hexan-3-yl}pyridin-2-yl)methyl]-N-[(4R)-1-methyl-1H,4H,5H,6H-cyclopenta[d]imidazol-4-yl]-1H-pyrazole-4-carboxamide] | 603 | 3.8
Cn1cnc2c1CC[C@H]2NC(=O)c1cn(Cc2ccc(N3CC4(CC4)C3)nc2F)nn1 [Example 10, 1-[(6-{5-Azaspiro[2.3]hexan-5-yl}-2-fluoropyridin-3-yl)methyl]-N-[(4R)-1-methyl-1H,4H,5H,6H-cyclo-penta[d]imidazol-4-yl]-1H-1,2,3-triazole-4-carboxamide] | 789 | 2.5
Cn1cnc2c1CC[C@H]2NC(=O)c1cnn(Cc2ccc(N3CC4(CC4)C3)nc2F)c1 [Example 12, 1-[(6-{5-Azaspiro[2.3]hexan-5-yl}-2-fluoropyridin-3-yl)methyl]-N-[(4R)-1-methyl-1H,4H,5H,6H-cyclopenta[d]imidazol-4-yl]-1H-pyrazole-4-carboxamide] | 802 | 3.4
Cc1nc(N2C[C@@H]3[C@@H](CO)[C@@H]3C2)ncc1Cn1cc(C(=O)N[C@@H]2CCc3c2ncn3C)cn1 [Example 235, 1-({2-[(1R,5S,6S)-6-(Hydroxymethyl)-3-azabicyclo[3.1.0]hexan-3-yl]-4-methylpyrimidin-5-yl}methyl)-N-[(4R)-1-methyl-1H,4H,5H,6H-cyclopenta[d]imidazol-4-yl]-1H-pyrazole-4-carboxamide] | – | 214
Cc1nc(N2C[C@@H]3[C@@H](O)[C@@H]3C2)ncc1Cn1cc(C(=O)N[C@@H]2CCc3c2ncn3C)cn1 [Example 236, 1-({2-[(1R,5S,6S)-6-Hydroxy-3-azabicyclo[3.1.0]hexan-3-yl]-4-methylpyrimidin-5-yl}methyl)-N-[(4R)-1-methyl-1H,4H,5H,6H-cyclopenta[d]imidazol-4-yl]-1H-pyrazole-4-carboxamide] | – | 222
Cc1nc(N2CCC3(CC2)CC3)ncc1Cn1cc(C(=O)N[C@@H]2CCc3c2ncn3C)cn1 [Example 237, 1-[(2-{6-Azaspiro[2.5]octan-6-yl}-4-methylpyrimidin-5-yl)methyl]-N-[(4R)-1-methyl-1H,4H,5H,6H-cyclopenta[d]imidazol-4-yl]-1H-pyrazole-4-carboxamide] | – | 111
Cc1nc(N2CC3CCC3C2)ncc1Cn1cc(C(=O)N[C@@H]2CCc3c2ncn3C)cn1 (stereo partly drawn) [Example 238, 1-[(2-{3-Azabicyclo[3.2.0]heptan-3-yl}-4-methylpyrimidin-5-yl)methyl]-N-[(4R)-1-methyl-1H,4H,5H,6H-cyclopenta[d]imidazol-4-yl]-1H-pyrazole-4-carboxamide] | – | 123
Cc1nc(N2CC3CCCC3C2)ncc1Cn1cc(C(=O)N[C@@H]2CCc3c2ncn3C)cn1 (stereo partly drawn) [Example 239, N-[(4R)-1-Methyl-1H,4H,5H,6H-cyclopenta[d]imidazol-4-yl]-1-[(4-methyl-2-{octahydrocyclopenta[c]pyrrol-2-yl}pyrimidin-5-yl)methyl]-1H-pyrazole-4-carboxamide] | – | 123
Cc1nc(N2CCC3(CCC3)C2)ncc1Cn1cc(C(=O)N[C@@H]2CCc3c2ncn3C)cn1 [Example 240, 1-[(2-{6-Azaspiro[3.4]octan-6-yl}-4-methylpyrimidin-5-yl)methyl]-N-[(4R)-1-methyl-1H,4H,5H,6H-cyclopenta[d]imidazol-4-yl]-1H-pyrazole-4-carboxamide] | – | 52

The next molecules have a lower IC50 [2] than those just listed; values first:

IC50 [1] [nM] | IC50 [2] [nM] | SMILES
300 | 2.1 | Cn1cnc2c1CC[C@H]2NC(=O)c1cn(Cc2ccc(N3CC4(CC4)C3)nc2F)cn1 [Example 11, 1-[(6-{5-Azaspiro[2.3]hexan-5-yl}-2-fluoropyridin-3-yl)methyl]-N-[(4R)-1-methyl-1H,4H,5H,6H-cyclopenta[d]imidazol-4-yl]-1H-imidazole-4-carboxamide]
460 | 2.1 | Cn1cnc2c1CC[C@H]2NC(=O)c1cnn(Cc2ccc(N3CC4C(C3)C4(F)F)nc2F)c1 (stereo partly drawn) [Example 18, 1-[(6-{6,6-Difluoro-3-azabicyclo[3.1.0]hexan-3-yl}-2-fluoropyridin-3-yl)methyl]-N-[(4R)-1-methyl-1H,4H,5H,6H-cyclopenta[d]imidazol-4-yl]-1H-pyrazole-4-carboxamide]
818 | 2 | Cn1cnc2c1CC[C@H]2NC(=O)c1cn(Cc2ccc(N3CC4CC4C3)nc2F)nn1 (stereo partly drawn) [Example 17, 1-[(6-{3-Azabicyclo[3.1.0]hexan-3-yl}-2-fluoropyridin-3-yl)methyl]-N-[(4R)-1-methyl-1H,4H,5H,6H-cyclo-penta[d]imidazol-4-yl]-1H-1,2,3-triazole-4-carboxamide]
286 | 2 | Cn1cnc2c1CC[C@H]2NC(=O)c1cn(Cc2ccc(N3CC4C(C3)C4(F)F)nc2F)nn1 (stereo partly drawn) [Example 25, 1-[(6-{6,6-Difluoro-3-azabicyclo[3.1.0]hexan-3-yl}-2-fluoropyridin-3-yl)methyl]-N-[(4R)-1-methyl-1H,4H,5H,6H-cyclopenta[d]imidazol-4-yl]-1H-1,2,3-triazole-4-carboxamide]
151 | 1.4 | Cn1cnc2c1CC[C@H]2NC(=O)c1cn(Cc2ccc(N3CC4C(C3)C4(F)F)nc2F)cn1 (stereo partly drawn) [Example 7, 1-[(6-{6,6-Difluoro-3-azabicyclo[3.1.0]hexan-3-yl}-2-fluoropyridin-3-yl)methyl]-N-[(4R)-1-methyl-1H,4H,5H,6H-cyclopenta[d]imidazol-4-yl]-1H-imidazole-4-carboxamide]
290 | 1.3 | Cn1cnc2c1CC[C@H]2NC(=O)c1cn(Cc2ccc(N3CC4C(C3)C4(F)F)nc2Cl)nn1 (stereo partly drawn) [Example 1, 1-[(2-Chloro-6-{6,6-difluoro-3-azabicyclo[3.1.0]hexan-3-yl}pyridin-3-yl)methyl]-N-[(4R)-1-methyl-1H,4H,5H,6H-cyclopenta[d]imidazol-4-yl]-1H-1,2,3-triazole-4-carboxamide]
278 | 1.1 | Cn1cnc2c1CC[C@H]2NC(=O)c1cn(Cc2ccc(N3CC4(CC4)C3)nc2Cl)nn1 [Example 5, 1-[(6-{5-Azaspiro[2.3]hexan-5-yl}-2-chloropyridin-3-yl)methyl]-N-[(4R)-1-methyl-1H,4H,5H,6H-cyclo-penta[d]imidazol-4-yl]-1H-1,2,3-triazole-4-carboxamide]
451 | 1.1 | Cn1cnc2c1CC[C@H]2NC(=O)c1cnn(Cc2ccc(N3CC4(CC4)C3)nc2Br)c1 [Example 13, 1-[(6-{5-Azaspiro[2.3]hexan-5-yl}-2-bromopyridin-3-yl)methyl]-N-[(4R)-1-methyl-1H,4H,5H,6H-cyclopenta[d]imidazol-4-yl]-1H-pyrazole-4-carboxamide]
414 | 1.1 | Cn1cnc2c1CC[C@H]2NC(=O)c1cnn(Cc2ccc(N3CC4C(C3)C4(F)F)nc2Br)c1 (stereo partly drawn) [Example 15, 1-[(2-Bromo-6-{6,6-difluoro-3-azabicyclo-[3.1.0]hexan-3-yl}pyridin-3-yl)methyl]-N-[(4R)-1-methyl-1H,4H,5H,6H-cyclopenta[d]imidazol-4-yl]-1H-pyrazole-4-carboxamide]
636 | 1 | Cn1cnc2c1CC[C@H]2NC(=O)c1cn(Cc2ccc(N3CC4C(C3)C4(F)F)nc2Br)nn1 (stereo partly drawn) [Example 14, 1-[(2-Bromo-6-{6,6-difluoro-3-azabicyclo-[3.1.0]hexan-3-yl}pyridin-3-yl)methyl]-N-[(4R)-1-methyl-1H,4H,5H,6H-cyclopenta[d]imidazol-4-yl]-1H-1,2,3-triazole-4-carboxamide]
1880 | 0.9 | Cn1cnc2c1CC[C@H]2NC(=O)c1cn(Cc2ccc(N3CC4(CC4)C3)nc2Br)nn1 [Example 6, 1-[(6-{5-Azaspiro[2.3]hexan-5-yl}-2-bromopyridin-3-yl)methyl]-N-[(4R)-1-methyl-1H,4H,5H,6H-cyclo-penta[d]imidazol-4-yl]-1H-1,2,3-triazole-4-carboxamide]
325 | 0.9 | Cn1cnc2c1CC[C@H]2NC(=O)c1cn(Cc2ccc(N3CC4(CC4)C3)nc2Cl)cn1 [Example 21, 1-[(6-{5-Azaspiro[2.3]hexan-5-yl}-2-chloropyridin-3-yl)methyl]-N-[(4R)-1-methyl-1H,4H,5H,6H-cyclopenta[d]imidazol-4-yl]-1H-imidazole-4-carboxamide]

Reference: patent US12479827B2, “Heteroaromatic carboxamide derivatives as plasma kallikrein inhibitors” (Boehringer Ingelheim International GmbH, priority 2020, dated 2025)
